From US20250282827A1, “LIPIDATED POLYMYXIN ANALOGUES” (priority 2021, published 2025)
Values after ≈ are worked out from the molar mass of the structure shown. Read-outs that look alike come from different tables or passages of the source. Positions of bridges follow the written chain, without caps; N, C: chain ends. Non-standard residues stand in square brackets, D forms with d. Residues, ends and D or L forms follow the SMILES beside them. *: point of attachment. CH2CH2OBz(4-tBu) = CC(C)(C)c1ccc(C(=O)OCC*)cc1; Ethyl(2-propionyloxy) = CCC(=O)OCC*; Ethyl(2-OPiv) = CC(C)(C)C(=O)OCC*; Ethyl(2-OBz) = O=C(OCC*)c1ccccc1; Dab = NCC[C@H](N)C(=O)O; X6 = CCC(C)(C)C(=O)OCC*; X2 = O=C(OCC*)C1CCCCC1; X12 = O=C(OCC*)C1CCC1; X8 = O=C(OCC*)C1CCCC1; X11 = O=C(OCC*)C1CC1

Columns and labels:
E. coli ATCC 25922 = format: cell-based, Escherichia coli
Source text: (§1) All 81 compounds prepared in Examples 2 and 3 underwent screening against a panel of Gram-negative bacterium to assess their ability to inhibit bacterial growth. […] The median value is presented.

A. baumannii ATCC 19606 = format: cell-based, Acinetobacter baumannii
Source text: as §1

P. aeruginosa ATCC 27853 = format: cell-based, Pseudomonas aeruginosa
Source text: as §1

K. pneumoniae ATCC 33495 = format: cell-based, Klebsiella pneumoniae
Source text: as §1

[1] = tested on: K. pneumoniae ATCC 700603; format: cell-based, Klebsiella pneumoniae
Source text: as §1

[2] = tested on: K. pneumoniae ATCC MS6671; format: cell-based, Klebsiella pneumoniae
Source text: as §1

E. coli ATCC MS8345 = format: cell-based, Escherichia coli
Source text: as §1
Expansion of the polymyxin macrocycle by substituting […]) offered little advantage in antimicrobial activity but was generally well tolerated although for A. baumanni and P. aeruginosa this was detrimental.

[3] = tested on: kidney organoids derived from human induced pluripotent stem cells; assay: Nephrotoxicity on kidney organoids, renal tubule deterioration by bright field imaging; format: cell-based; details: scored after 48 h; note: key: 1 = unaffected; 2 = mild deterioration; 3 = severe deterioration; 4 = complete deterioration
Method: Selected polymyxin analogues were evaluated for cytotoxicity in physiologically relevant human kidney tissue, using kidney organoids derived from human induced pluripotent stem cells (Soo et al. 2018). Monolipidated analogues 29, 31, 33, containing a propyl, decyl or phenyl lipid, dilapidated compounds, 35, 38, 39, containing a propyl, tert-butyl or phenyl, lipid, respectively and the N-capped, di-lipidated (phenyl) 49 were selected.
The control compound polymyxin B and the seven ClipPA analogues were tested by adding a range of concentrations (based on Gallado-Godoy et al. 2016) to the organoids at day 12 of the protocol, shown previously to correspond to optimal maturity of the organoid tissues.
Toxicity was scored after 48 h for signs of renal tubule deterioration visible by bright field imaging (not shown).

[4] = colistin-resistant strain, median of triplicate

Row | Compound | MIC E. coli ATCC 25922 (E. coli ATCC 25922; median of triplicate) [µg/mL] | MIC A. baumannii ATCC 19606 (A. baumannii ATCC 19606; median of triplicate) [µg/mL] | MIC P. aeruginosa ATCC 27853 (P. aeruginosa ATCC 27853; median of triplicate) [µg/mL] | MIC K. pneumoniae ATCC 33495 (K. pneumoniae ATCC 33495; median of triplicate) [µg/mL] | MIC K. pneumoniae ATCC 700603 ([1]; median of triplicate) [µg/mL] | MIC K. pneumoniae ATCC MS6671 ([2]; median of triplicate) [µg/mL] | MIC E. coli ATCC MS8345 (E. coli ATCC MS8345; [4]) [µg/mL] | Score (nephrotoxicity on kidney organoids) ([3]; 100 μM) | Score (nephrotoxicity on kidney organoids) ([3]; 300 μM) | Score (nephrotoxicity on kidney organoids) ([3]; 1 mM) | MIC E. coli ATCC 25922 (E. coli ATCC 25922; ATCC 25922) [µg/mL] | MIC A. baumannii ATCC 19606 (A. baumannii ATCC 19606; ATCC 19606) [µg/mL] | MIC P. aeruginosa ATCC 27853 (P. aeruginosa ATCC 27853; ATCC 27853) [µg/mL] | MIC K. pneumoniae ATCC 33495 (K. pneumoniae ATCC 33495; ATCC 33495) [µg/mL] | MIC K. pneumoniae ATCC 700603 ([1]; ATCC 700603) [µg/mL] | MIC K. pneumoniae ATCC MS6671 ([2]; ATCC MS6671) [µg/mL] | MIC E. coli ATCC MS8345 (E. coli ATCC MS8345; ATCC MS8345) [µg/mL]
1 | CC(C)C[C@@H]1NC(=O)[C@@H](Cc2ccccc2)NC(=O)[C@H](CCN)NC(=O)[C@@H](NC(=O)[C@H](CCN)NC(=O)[C@@H](NC(=O)[C@H](CCN)NC(=O)[C@@H](N)CSCCOC(=O)c2ccccc2)[C@@H](C)O)CCNC(=O)[C@H]([C@@H](C)O)NC(=O)[C@H](CCN)NC(=O)[C@H](CCN)NC1=O [Compound 33] (H-C(Ethyl(2-OBz))[Dab]T[Dab][Dab][Dab][dF]L[Dab][Dab]T; lactam 5-C) | 0.25 (≈ 0.19 µM) | 0.5 (≈ 0.38 µM) | 0.5 (≈ 0.38 µM) | 0.0625 (≈ 0.0475 µM) | 0.25 (≈ 0.19 µM) | >32 | 2 (≈ 1.52 µM) | 1 | 3 | 4 |  |  |  |  |  |  | 
2 | CCC(=O)OCCSC[C@H](N)C(=O)N[C@@H](CCN)C(=O)N[C@H](C(=O)N[C@@H](CCN)C(=O)N[C@H]1CCNC(=O)[C@H]([C@@H](C)O)NC(=O)[C@H](CCN)NC(=O)[C@H](CCN)NC(=O)[C@H](CSCCOC(=O)c2ccccc2)NC(=O)[C@@H](Cc2ccccc2)NC(=O)[C@H](CCN)NC1=O)[C@@H](C)O [Compound 44] (H-C(Ethyl(2-propionyloxy))[Dab]T[Dab][Dab][Dab][dF]C(Ethyl(2-OBz))[Dab][Dab]T; lactam 5-C) | 0.5 (≈ 0.356 µM) | 32 (≈ 22.8 µM) | 16 (≈ 11.4 µM) | 0.5 (≈ 0.356 µM) | 0.5 (≈ 0.356 µM) | >32 | 32 (≈ 22.8 µM) | 1 | 2 | 3 |  |  |  |  |  |  | 
3 | C[C@@H](O)[C@@H]1NC(=O)[C@H](CCN)NC(=O)[C@H](CCN)NC(=O)[C@H](CSCCOC(=O)c2ccccc2)NC(=O)[C@@H](Cc2ccccc2)NC(=O)[C@H](CCN)NC(=O)[C@@H](NC(=O)[C@H](CCN)NC(=O)[C@@H](NC(=O)[C@H](CCN)NC(=O)[C@@H](N)CSCCOC(=O)C(C)(C)C)[C@@H](C)O)CCNC1=O [Compound 46] (H-C(Ethyl(2-OPiv))[Dab]T[Dab][Dab][Dab][dF]C(Ethyl(2-OBz))[Dab][Dab]T; lactam 5-C) | 2 to 4 | 16 (≈ 11.2 µM) | 16 (≈ 11.2 µM) | 2 (≈ 1.4 µM) | 1 to 2 | >32 |  | 1 | 3 | 4 |  |  |  |  |  |  | 
4 | CCC(=O)OCCSC[C@@H]1NC(=O)[C@@H](Cc2ccccc2)NC(=O)[C@H](CCN)NC(=O)[C@@H](NC(=O)[C@H](CCN)NC(=O)[C@@H](NC(=O)[C@H](CCN)NC(=O)[C@@H](N)CSCCOC(=O)c2ccccc2)[C@@H](C)O)CCNC(=O)[C@H]([C@@H](C)O)NC(=O)[C@H](CCN)NC(=O)[C@H](CCN)NC1=O [Compound 47] (H-C(Ethyl(2-OBz))[Dab]T[Dab][Dab][Dab][dF]C(Ethyl(2-propionyloxy))[Dab][Dab]T; lactam 5-C) | 2 to 4 | >32 | >32 | 2 to 4 | 2 to 4 | >32 | >32 | 1 | 2 | 3 |  |  |  |  |  |  | 
5 | C[C@@H](O)[C@@H]1NC(=O)[C@H](CCN)NC(=O)[C@H](CCN)NC(=O)[C@H](CSCCOC(=O)C(C)(C)C)NC(=O)[C@@H](Cc2ccccc2)NC(=O)[C@H](CCN)NC(=O)[C@@H](NC(=O)[C@H](CCN)NC(=O)[C@@H](NC(=O)[C@H](CCN)NC(=O)[C@@H](N)CSCCOC(=O)c2ccccc2)[C@@H](C)O)CCNC1=O [Compound 48] (H-C(Ethyl(2-OBz))[Dab]T[Dab][Dab][Dab][dF]C(Ethyl(2-OPiv))[Dab][Dab]T; lactam 5-C) | 2 (≈ 1.4 µM) | 32 (≈ 22.3 µM) | 2 (≈ 1.4 µM) | 2 to 4 | 4 (≈ 2.79 µM) | >32 | >32 | 1 | 2 | 4 |  |  |  |  |  |  | 
6 | CCC(C)(C)C(=O)OCCSC[C@@H](N)C(=O)N[C@H](C(=O)N[C@@H](CCN)C(=O)N[C@H]1CCNC(=O)[C@H]([C@@H](C)O)NC(=O)[C@H](CCN)NC(=O)[C@H](CCN)NC(=O)[C@H](CC(C)C)NC(=O)[C@@H](Cc2ccccc2)NC(=O)[C@H](CCN)NC1=O)[C@@H](C)O [Compound 99] (H-[dC](X6)T[Dab][Dab][Dab][dF]L[Dab][Dab]T; lactam 4-C) |  |  |  |  |  |  |  |  |  |  | 2 (≈ 1.65 µM) | 4 (≈ 3.31 µM) | 4 (≈ 3.31 µM) | 2 (≈ 1.65 µM) | 2 (≈ 1.65 µM) | >32 | >32
7 | CC(C)C[C@@H]1NC(=O)[C@@H](Cc2ccccc2)NC(=O)[C@H](CCN)NC(=O)[C@@H](NC(=O)[C@H](CCN)NC(=O)[C@@H](NC(=O)[C@H](N)CSCCOC(=O)C2CC2)[C@@H](C)O)CCNC(=O)[C@H]([C@@H](C)O)NC(=O)[C@H](CCN)NC(=O)[C@H](CCN)NC1=O [Compound 100] (H-[dC](X11)T[Dab][Dab][Dab][dF]L[Dab][Dab]T; lactam 4-C) |  |  |  |  |  |  |  |  |  |  | 4 (≈ 3.39 µM) | 16 (≈ 13.6 µM) | 4 (≈ 3.39 µM) | 2 (≈ 1.7 µM) | 4 (≈ 3.39 µM) | >32 | >32
8 | CC(C)C[C@@H]1NC(=O)[C@@H](Cc2ccccc2)NC(=O)[C@H](CCN)NC(=O)[C@@H](NC(=O)[C@H](CCN)NC(=O)[C@@H](NC(=O)[C@H](N)CSCCOC(=O)C2CCC2)[C@@H](C)O)CCNC(=O)[C@H]([C@@H](C)O)NC(=O)[C@H](CCN)NC(=O)[C@H](CCN)NC1=O [Compound 101] (H-[dC](X12)T[Dab][Dab][Dab][dF]L[Dab][Dab]T; lactam 4-C) |  |  |  |  |  |  |  |  |  |  | 1 (≈ 0.839 µM) | 4 (≈ 3.35 µM) | 2 (≈ 1.68 µM) | 1 (≈ 0.839 µM) | 2 (≈ 1.68 µM) | >32 | >32
9 | CC(C)C[C@@H]1NC(=O)[C@@H](Cc2ccccc2)NC(=O)[C@H](CCN)NC(=O)[C@@H](NC(=O)[C@H](CCN)NC(=O)[C@@H](NC(=O)[C@H](N)CSCCOC(=O)C2CCCC2)[C@@H](C)O)CCNC(=O)[C@H]([C@@H](C)O)NC(=O)[C@H](CCN)NC(=O)[C@H](CCN)NC1=O [Compound 102] (H-[dC](X8)T[Dab][Dab][Dab][dF]L[Dab][Dab]T; lactam 4-C) |  |  |  |  |  |  |  |  |  |  | 1 (≈ 0.829 µM) | 16 (≈ 13.3 µM) | 2 (≈ 1.66 µM) | 1 (≈ 0.829 µM) | 1 (≈ 0.829 µM) | >32 | 16 (≈ 13.3 µM)
10 | CC(C)C[C@@H]1NC(=O)[C@@H](Cc2ccccc2)NC(=O)[C@H](CCN)NC(=O)[C@@H](NC(=O)[C@H](CCN)NC(=O)[C@@H](NC(=O)[C@H](N)CSCCOC(=O)C2CCCCC2)[C@@H](C)O)CCNC(=O)[C@H]([C@@H](C)O)NC(=O)[C@H](CCN)NC(=O)[C@H](CCN)NC1=O [Compound 103] (H-[dC](X2)T[Dab][Dab][Dab][dF]L[Dab][Dab]T; lactam 4-C) |  |  |  |  |  |  |  |  |  |  | 2 (≈ 1.64 µM) | 4 (≈ 3.28 µM) | 2 (≈ 1.64 µM) | 2 (≈ 1.64 µM) | 2 (≈ 1.64 µM) | >32 | 16 (≈ 13.1 µM)
11 | CC(C)C[C@@H]1NC(=O)[C@@H](Cc2ccccc2)NC(=O)[C@H](CCN)NC(=O)[C@@H](NC(=O)[C@H](CCN)NC(=O)[C@@H](NC(=O)[C@H](N)CSCCOC(=O)c2ccc(C(C)(C)C)cc2)[C@@H](C)O)CCNC(=O)[C@H]([C@@H](C)O)NC(=O)[C@H](CCN)NC(=O)[C@H](CCN)NC1=O [Compound 104] (H-[dC](CH2CH2OBz(4-tBu))T[Dab][Dab][Dab][dF]L[Dab][Dab]T; lactam 4-C) |  |  |  |  |  |  |  |  |  |  | 2 (≈ 1.57 µM) | 4 (≈ 3.15 µM) | 2 (≈ 1.57 µM) | 2 (≈ 1.57 µM) | 4 (≈ 3.15 µM) | >32 | 2 (≈ 1.57 µM)
